Assay results published in the kinase profiling compilation of Christmann-Franck et al. (2016).

Assays:
Assay in all cases: radiometric filter-binding kinase assay, Kinase HotSpot
Details in all cases: compound 0.5 µM; ATP 10 µM
PIM1 (human) = PIM1 (human) (UniProt P11309)
FGFR2 (human) = FGFR2 (human) (UniProt P21802)
EPHB3 (human) = EPHB3 (human) (UniProt P54753)
GSK3A (human) = GSK3A (human) (UniProt P49840)
PIM3 (human) = PIM3 (human) (UniProt Q86V86)
CAMK2A (human) = CAMK2A (human) (UniProt Q9UQM7)
PRKX (human) = PRKX (human) (UniProt P51817)
ACVRL1 (human) = ACVRL1 (human) (UniProt P37023)
CSNK1G1 (human) = CSNK1G1 (human) (UniProt Q9HCP0)
WNK2 (human) = WNK2 (human) (UniProt Q9Y3S1)
MARK2 (human) = MARK2 (human) (UniProt Q7KZI7)
PLK2 (human) = PLK2 (human) (UniProt Q9NYY3)
EPHA1 (human) = EPHA1 (human) (UniProt P21709)
CSNK1E (human) = CSNK1E (human) (UniProt P49674)
CLK3 (human) = CLK3 (human) (UniProt P49761)
STK17A (human) = STK17A (human) (UniProt Q9UEE5)
JAK2 JH1 JH2 (human) = JAK2 JH1 JH2 (human) (UniProt O60674)
SGK3 (human) = SGK3 (human) (UniProt Q96BR1)
FGFR3 (human) = FGFR3 (human) (UniProt P22607)
MATK (human) = MATK (human) (UniProt P42679)
PLK1 (human) = PLK1 (human) (UniProt P53350)
DYRK3 (human) = DYRK3 (human) (UniProt O43781)
MAP4K2 (human) = MAP4K2 (human) (UniProt Q12851)
NEK4 (human) = NEK4 (human) (UniProt P51957)
STK11 (human) = STK11 (human) (UniProt Q15831)
MERTK (human) = MERTK (human) (UniProt Q12866)
TYRO3 (human) = TYRO3 (human) (UniProt Q06418)
BTK (human) = BTK (human) (UniProt Q06187)
MAP3K3 (human) = MAP3K3 (human) (UniProt Q99759)
MST1R (human) = MST1R (human) (UniProt Q04912)
SIK2 (human) = SIK2 (human) (UniProt Q9H0K1)
PHKG1 (human) = PHKG1 (human) (UniProt Q16816)
MUSK (human) = MUSK (human) (UniProt O15146)
TSSK2 (human) = TSSK2 (human) (UniProt Q96PF2)
CSNK1D (human) = CSNK1D (human) (UniProt P48730)
NUAK1 (human) = NUAK1 (human) (UniProt O60285)
NTRK2 (human) = NTRK2 (human) (UniProt Q16620)
DDR2 (human) = DDR2 (human) (UniProt Q16832)
EPHA8 (human) = EPHA8 (human) (UniProt P29322)
HCK (human) = HCK (human) (UniProt P08631)
NEK11 (human) = NEK11 (human) (UniProt Q8NG66)
CSNK1G3 (human) = CSNK1G3 (human) (UniProt Q9Y6M4)

WNK2 (human), sequence (Q9Y3S1 whole entry, looked up): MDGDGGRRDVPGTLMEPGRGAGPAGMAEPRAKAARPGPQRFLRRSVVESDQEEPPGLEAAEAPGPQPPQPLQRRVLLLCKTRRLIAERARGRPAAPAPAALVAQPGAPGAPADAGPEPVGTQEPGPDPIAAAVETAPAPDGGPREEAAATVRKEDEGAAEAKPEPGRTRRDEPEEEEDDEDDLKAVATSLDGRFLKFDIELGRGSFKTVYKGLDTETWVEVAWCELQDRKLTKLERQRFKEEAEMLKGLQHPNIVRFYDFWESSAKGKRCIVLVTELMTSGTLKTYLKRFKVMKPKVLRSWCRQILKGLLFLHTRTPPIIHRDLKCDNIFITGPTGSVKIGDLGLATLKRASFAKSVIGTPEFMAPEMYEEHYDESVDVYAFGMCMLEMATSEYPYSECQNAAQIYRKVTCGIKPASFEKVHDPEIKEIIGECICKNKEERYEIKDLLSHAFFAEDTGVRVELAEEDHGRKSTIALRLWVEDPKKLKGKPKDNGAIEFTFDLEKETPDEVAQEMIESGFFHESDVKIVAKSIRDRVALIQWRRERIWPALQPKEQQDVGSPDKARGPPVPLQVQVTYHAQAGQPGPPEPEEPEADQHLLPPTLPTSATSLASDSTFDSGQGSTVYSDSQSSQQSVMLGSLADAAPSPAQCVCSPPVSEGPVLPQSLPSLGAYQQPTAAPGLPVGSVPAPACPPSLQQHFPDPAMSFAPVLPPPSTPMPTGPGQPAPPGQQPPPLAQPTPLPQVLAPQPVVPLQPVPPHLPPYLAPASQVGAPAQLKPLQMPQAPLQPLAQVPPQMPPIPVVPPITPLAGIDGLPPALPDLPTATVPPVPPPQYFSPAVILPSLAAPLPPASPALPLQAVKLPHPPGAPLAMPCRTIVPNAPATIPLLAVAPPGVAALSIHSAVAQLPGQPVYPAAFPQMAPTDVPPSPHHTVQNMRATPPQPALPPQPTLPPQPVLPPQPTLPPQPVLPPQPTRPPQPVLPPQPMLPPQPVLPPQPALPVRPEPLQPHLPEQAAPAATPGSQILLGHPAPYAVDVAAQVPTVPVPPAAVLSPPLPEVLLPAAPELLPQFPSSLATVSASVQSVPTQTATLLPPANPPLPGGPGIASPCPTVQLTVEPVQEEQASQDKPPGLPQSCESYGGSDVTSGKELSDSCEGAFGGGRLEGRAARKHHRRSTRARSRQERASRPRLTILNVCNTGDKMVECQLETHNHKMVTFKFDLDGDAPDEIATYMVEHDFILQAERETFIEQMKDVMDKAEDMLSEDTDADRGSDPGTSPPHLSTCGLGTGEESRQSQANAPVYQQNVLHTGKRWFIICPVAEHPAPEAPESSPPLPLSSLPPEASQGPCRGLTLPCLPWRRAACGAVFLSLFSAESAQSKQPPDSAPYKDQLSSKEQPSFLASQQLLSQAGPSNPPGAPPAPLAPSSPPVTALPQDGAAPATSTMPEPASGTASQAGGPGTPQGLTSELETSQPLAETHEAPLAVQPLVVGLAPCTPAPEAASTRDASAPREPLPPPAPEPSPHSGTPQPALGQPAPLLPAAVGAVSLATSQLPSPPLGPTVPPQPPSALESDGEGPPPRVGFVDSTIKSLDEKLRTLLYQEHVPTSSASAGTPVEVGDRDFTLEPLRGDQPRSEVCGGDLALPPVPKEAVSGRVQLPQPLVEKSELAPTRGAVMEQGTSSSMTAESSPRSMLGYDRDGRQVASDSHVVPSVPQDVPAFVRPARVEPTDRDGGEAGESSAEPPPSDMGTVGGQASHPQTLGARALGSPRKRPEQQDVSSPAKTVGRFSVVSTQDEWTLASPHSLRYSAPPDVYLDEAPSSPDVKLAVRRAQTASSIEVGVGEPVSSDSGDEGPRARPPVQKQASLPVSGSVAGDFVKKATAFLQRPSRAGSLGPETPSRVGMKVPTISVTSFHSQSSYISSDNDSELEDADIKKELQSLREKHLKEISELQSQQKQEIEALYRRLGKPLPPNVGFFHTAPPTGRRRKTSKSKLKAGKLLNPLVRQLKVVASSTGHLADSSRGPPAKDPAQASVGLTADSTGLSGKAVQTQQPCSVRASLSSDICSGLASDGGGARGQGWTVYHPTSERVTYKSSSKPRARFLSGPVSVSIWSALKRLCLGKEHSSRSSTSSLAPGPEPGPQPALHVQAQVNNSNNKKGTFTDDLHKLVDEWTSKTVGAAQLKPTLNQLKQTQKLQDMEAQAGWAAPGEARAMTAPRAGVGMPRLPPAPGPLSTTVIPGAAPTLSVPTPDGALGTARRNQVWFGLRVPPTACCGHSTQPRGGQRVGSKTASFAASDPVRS
TYRO3 (human), sequence (Q06418 whole entry, looked up): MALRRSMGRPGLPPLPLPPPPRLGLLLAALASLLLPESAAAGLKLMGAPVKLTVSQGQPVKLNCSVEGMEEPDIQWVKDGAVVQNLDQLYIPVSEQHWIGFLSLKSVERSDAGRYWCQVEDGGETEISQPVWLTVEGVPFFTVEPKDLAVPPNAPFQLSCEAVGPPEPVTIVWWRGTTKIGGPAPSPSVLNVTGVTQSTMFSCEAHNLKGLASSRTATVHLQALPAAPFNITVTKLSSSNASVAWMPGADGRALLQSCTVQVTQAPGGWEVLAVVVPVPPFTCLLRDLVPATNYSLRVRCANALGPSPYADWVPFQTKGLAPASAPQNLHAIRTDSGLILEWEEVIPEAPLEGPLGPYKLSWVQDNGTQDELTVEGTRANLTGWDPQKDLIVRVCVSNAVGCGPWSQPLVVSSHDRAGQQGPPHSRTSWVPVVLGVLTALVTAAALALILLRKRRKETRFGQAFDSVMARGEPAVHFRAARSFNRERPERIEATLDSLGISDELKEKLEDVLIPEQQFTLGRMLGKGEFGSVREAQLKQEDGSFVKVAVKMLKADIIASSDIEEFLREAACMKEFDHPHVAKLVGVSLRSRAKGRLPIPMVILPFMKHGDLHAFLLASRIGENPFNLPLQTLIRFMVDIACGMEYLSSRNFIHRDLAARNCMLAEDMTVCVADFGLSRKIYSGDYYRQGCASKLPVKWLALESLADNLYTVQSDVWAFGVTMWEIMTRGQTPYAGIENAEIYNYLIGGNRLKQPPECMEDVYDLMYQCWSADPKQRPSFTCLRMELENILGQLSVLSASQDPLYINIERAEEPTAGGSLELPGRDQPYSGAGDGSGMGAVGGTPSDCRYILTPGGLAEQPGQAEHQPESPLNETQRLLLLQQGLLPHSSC
CSNK1G1 (human), sequence (Q9HCP0 whole entry, looked up): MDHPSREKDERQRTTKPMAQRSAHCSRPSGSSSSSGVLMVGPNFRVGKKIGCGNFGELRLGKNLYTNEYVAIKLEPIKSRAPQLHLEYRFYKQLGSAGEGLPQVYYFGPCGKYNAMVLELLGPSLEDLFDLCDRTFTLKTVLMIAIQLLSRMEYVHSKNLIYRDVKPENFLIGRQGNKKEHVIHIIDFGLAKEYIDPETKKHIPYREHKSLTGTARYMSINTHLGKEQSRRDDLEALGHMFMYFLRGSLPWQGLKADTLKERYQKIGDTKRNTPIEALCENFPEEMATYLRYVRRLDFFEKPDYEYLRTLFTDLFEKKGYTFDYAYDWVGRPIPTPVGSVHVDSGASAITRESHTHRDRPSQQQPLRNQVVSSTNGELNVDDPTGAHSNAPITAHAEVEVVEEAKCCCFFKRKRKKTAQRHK
CAMK2A (human), sequence (Q9UQM7 whole entry, looked up): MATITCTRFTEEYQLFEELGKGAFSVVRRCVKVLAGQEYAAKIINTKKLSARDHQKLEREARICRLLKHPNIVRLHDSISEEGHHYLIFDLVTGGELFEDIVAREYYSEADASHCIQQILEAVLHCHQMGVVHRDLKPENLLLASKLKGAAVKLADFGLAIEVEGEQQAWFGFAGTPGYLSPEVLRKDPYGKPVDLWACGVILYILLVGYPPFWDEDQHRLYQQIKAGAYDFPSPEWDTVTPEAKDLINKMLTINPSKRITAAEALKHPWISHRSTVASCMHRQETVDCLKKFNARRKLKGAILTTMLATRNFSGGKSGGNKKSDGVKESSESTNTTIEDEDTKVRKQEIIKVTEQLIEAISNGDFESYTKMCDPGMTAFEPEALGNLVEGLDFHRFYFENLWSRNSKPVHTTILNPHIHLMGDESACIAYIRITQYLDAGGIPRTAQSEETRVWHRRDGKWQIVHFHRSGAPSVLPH
PIM1 (human), sequence (P11309 whole entry, looked up): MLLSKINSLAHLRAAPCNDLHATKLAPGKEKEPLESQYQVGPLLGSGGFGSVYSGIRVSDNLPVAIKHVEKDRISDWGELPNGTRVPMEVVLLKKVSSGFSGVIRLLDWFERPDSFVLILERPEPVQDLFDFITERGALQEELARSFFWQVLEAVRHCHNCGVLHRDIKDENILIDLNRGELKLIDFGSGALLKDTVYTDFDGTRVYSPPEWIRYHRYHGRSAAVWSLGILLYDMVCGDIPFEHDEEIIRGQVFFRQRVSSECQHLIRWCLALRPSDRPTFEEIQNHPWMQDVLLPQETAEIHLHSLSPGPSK
CSNK1E (human), sequence (P49674 whole entry, looked up): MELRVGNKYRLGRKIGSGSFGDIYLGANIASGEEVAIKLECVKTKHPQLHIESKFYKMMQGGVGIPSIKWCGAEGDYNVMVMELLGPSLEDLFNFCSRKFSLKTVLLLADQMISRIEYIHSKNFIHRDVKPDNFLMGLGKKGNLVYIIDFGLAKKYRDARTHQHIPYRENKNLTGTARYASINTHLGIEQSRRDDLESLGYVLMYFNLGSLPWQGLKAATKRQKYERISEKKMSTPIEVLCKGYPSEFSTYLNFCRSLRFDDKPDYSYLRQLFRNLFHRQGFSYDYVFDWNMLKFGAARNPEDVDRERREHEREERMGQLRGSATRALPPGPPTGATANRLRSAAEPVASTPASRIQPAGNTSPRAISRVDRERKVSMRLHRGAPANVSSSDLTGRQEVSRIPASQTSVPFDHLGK

Compound O=C1NC(=O)c2c1c1c3ccccc3n3c1c1c2c2ccccc2n1C1CCC3O1 has a residual activity (PIM1 (human)) of 0.435%, a residual activity (FGFR2 (human)) of 34.1% and a residual activity (EPHB3 (human)) of 93.2%. For the same compound, the residual activity (GSK3A (human)) was 2.19%, the residual activity (PIM3 (human)) was 0.238% and the residual activity (CAMK2A (human)) was 2.84%. It also gave a residual activity (PRKX (human)) of 17.5%, a residual activity (ACVRL1 (human)) of 78.6% and a residual activity (CSNK1G1 (human)) of 96.1%. It also gave a residual activity (WNK2 (human)) of 93.6%, a residual activity (MARK2 (human)) of 4.88% and a residual activity (PLK2 (human)) of 62.4%. For the same compound, the residual activity (EPHA1 (human)) was 90.1%, the residual activity (CSNK1E (human)) was 47.3% and the residual activity (CLK3 (human)) was 97%. The residual activity (STK17A (human)) was 8.65%, the residual activity (JAK2 JH1 JH2 (human)) was 14.2% and the residual activity (SGK3 (human)) was 71.7%. The residual activity (FGFR3 (human)) was 36.3%, the residual activity (MATK (human)) was 91.7% and the residual activity (PLK1 (human)) was 50.2%. It also gave a residual activity (DYRK3 (human)) of 16.6%, a residual activity (MAP4K2 (human)) of 3.75% and a residual activity (NEK4 (human)) of 22%. It also gave a residual activity (STK11 (human)) of 50.5%, a residual activity (MERTK (human)) of 13.6% and a residual activity (TYRO3 (human)) of 55.3%. It also gave a residual activity (BTK (human)) of 43.3%, a residual activity (MAP3K3 (human)) of 18.4% and a residual activity (MST1R (human)) of 87.7%. The residual activity (SIK2 (human)) was 33.9%, the residual activity (PHKG1 (human)) was 2.75% and the residual activity (MUSK (human)) was 25.8%. It also gave a residual activity (TSSK2 (human)) of 87.1%, a residual activity (CSNK1D (human)) of 93.8% and a residual activity (NUAK1 (human)) of 2.09%. It also gave a residual activity (NTRK2 (human)) of 6.87%, a residual activity (DDR2 (human)) of 80.1% and a residual activity (EPHA8 (human)) of 89.9%. For the same compound, the residual activity (HCK (human)) was 24.8%, the residual activity (NEK11 (human)) was 60.6% and the residual activity (CSNK1G3 (human)) was 108%.

CCOC(=O)c1c(C)[nH]c(/C=C2\C(=O)Nc3ccccc32)c1C showed a residual activity (PIM1 (human)) of 95.8%, a residual activity (FGFR2 (human)) of 97.9% and a residual activity (EPHB3 (human)) of 94.4%. The residual activity (GSK3A (human)) was 93.5%, the residual activity (PIM3 (human)) was 75.1% and the residual activity (CAMK2A (human)) was 96.8%. For the same compound, the residual activity (PRKX (human)) was 94.8%, the residual activity (ACVRL1 (human)) was 94.8% and the residual activity (CSNK1G1 (human)) was 103%. For the same compound, the residual activity (WNK2 (human)) was 100%, the residual activity (MARK2 (human)) was 87.6% and the residual activity (PLK2 (human)) was 102%. For the same compound, the residual activity (EPHA1 (human)) was 90.8%, the residual activity (CSNK1E (human)) was 73.7% and the residual activity (CLK3 (human)) was 100%. The residual activity (STK17A (human)) was 81.4%, the residual activity (JAK2 JH1 JH2 (human)) was 96.7% and the residual activity (SGK3 (human)) was 88.1%. It also gave a residual activity (FGFR3 (human)) of 80.4%, a residual activity (MATK (human)) of 101% and a residual activity (PLK1 (human)) of 107%. For the same compound, the residual activity (DYRK3 (human)) was 102%, the residual activity (MAP4K2 (human)) was 95.5% and the residual activity (NEK4 (human)) was 95.1%. The residual activity (STK11 (human)) was 85.2%, the residual activity (MERTK (human)) was 69.3% and the residual activity (TYRO3 (human)) was 96.9%. For the same compound, the residual activity (BTK (human)) was 95.6%, the residual activity (MAP3K3 (human)) was 92.8% and the residual activity (MST1R (human)) was 87.5%. It also gave a residual activity (SIK2 (human)) of 99.9%, a residual activity (PHKG1 (human)) of 73.3% and a residual activity (MUSK (human)) of 88.7%. The residual activity (TSSK2 (human)) was 95.9%, the residual activity (CSNK1D (human)) was 96.4% and the residual activity (NUAK1 (human)) was 62.3%. The residual activity (NTRK2 (human)) was 66.6%, the residual activity (DDR2 (human)) was 98% and the residual activity (EPHA8 (human)) was 88.7%. It also gave a residual activity (HCK (human)) of 92.6%, a residual activity (NEK11 (human)) of 96.6% and a residual activity (CSNK1G3 (human)) of 97.9%.

With CC(C)N(CCC(=O)c1ccc2ccccc2c1)Cc1ccccc1 the residual activity (PIM1 (human)) was 100%, the residual activity (FGFR2 (human)) was 107% and the residual activity (EPHB3 (human)) was 88.5%. For the same compound, the residual activity (GSK3A (human)) was 98.8%, the residual activity (PIM3 (human)) was 105% and the residual activity (CAMK2A (human)) was 106%. It also gave a residual activity (PRKX (human)) of 99.6%, a residual activity (ACVRL1 (human)) of 107% and a residual activity (CSNK1G1 (human)) of 101%. The residual activity (WNK2 (human)) was 107%, the residual activity (MARK2 (human)) was 97.9% and the residual activity (PLK2 (human)) was 97%. It also gave a residual activity (EPHA1 (human)) of 92.4%, a residual activity (CSNK1E (human)) of 96.1% and a residual activity (CLK3 (human)) of 99.6%. It also gave a residual activity (STK17A (human)) of 104%, a residual activity (JAK2 JH1 JH2 (human)) of 97.5% and a residual activity (SGK3 (human)) of 106%. For the same compound, the residual activity (FGFR3 (human)) was 99.8%, the residual activity (MATK (human)) was 80.7% and the residual activity (PLK1 (human)) was 97.8%. For the same compound, the residual activity (DYRK3 (human)) was 107%, the residual activity (MAP4K2 (human)) was 98.3% and the residual activity (NEK4 (human)) was 95.7%. For the same compound, the residual activity (STK11 (human)) was 94.2%, the residual activity (MERTK (human)) was 106% and the residual activity (TYRO3 (human)) was 98.9%. For the same compound, the residual activity (BTK (human)) was 87.5%, the residual activity (MAP3K3 (human)) was 102% and the residual activity (MST1R (human)) was 92.6%. It also gave a residual activity (SIK2 (human)) of 103%, a residual activity (PHKG1 (human)) of 91.6% and a residual activity (MUSK (human)) of 112%. The residual activity (TSSK2 (human)) was 100%, the residual activity (CSNK1D (human)) was 97.6% and the residual activity (NUAK1 (human)) was 97.1%. The residual activity (NTRK2 (human)) was 92.1%, the residual activity (DDR2 (human)) was 92.5% and the residual activity (EPHA8 (human)) was 95.9%. The residual activity (HCK (human)) was 94.9%, the residual activity (NEK11 (human)) was 105% and the residual activity (CSNK1G3 (human)) was 99%.

In the case of CCCC(=O)Oc1ccc2[nH]c(C(=O)c3cc4ccccc4[nH]3)cc2c1, the residual activity (PIM1 (human)) is reported as 100%, the residual activity (FGFR2 (human)) is reported as 100% and the residual activity (EPHB3 (human)) is reported as 94.2%. The residual activity (GSK3A (human)) was 94.1%, the residual activity (PIM3 (human)) was 84.5% and the residual activity (CAMK2A (human)) was 87%. The residual activity (PRKX (human)) was 96.1%, the residual activity (ACVRL1 (human)) was 90.9% and the residual activity (CSNK1G1 (human)) was 76.1%. It also gave a residual activity (WNK2 (human)) of 113%, a residual activity (MARK2 (human)) of 83.1% and a residual activity (PLK2 (human)) of 101%. The residual activity (EPHA1 (human)) was 88.8%, the residual activity (CSNK1E (human)) was 97.4% and the residual activity (CLK3 (human)) was 96.9%. It also gave a residual activity (STK17A (human)) of 90.9%, a residual activity (JAK2 JH1 JH2 (human)) of 106% and a residual activity (SGK3 (human)) of 102%. For the same compound, the residual activity (FGFR3 (human)) was 95.2%, the residual activity (MATK (human)) was 93.4% and the residual activity (PLK1 (human)) was 101%. It also gave a residual activity (DYRK3 (human)) of 92.6%, a residual activity (MAP4K2 (human)) of 95.3% and a residual activity (NEK4 (human)) of 96.4%. It also gave a residual activity (STK11 (human)) of 101%, a residual activity (MERTK (human)) of 96.7% and a residual activity (TYRO3 (human)) of 101%. It also gave a residual activity (BTK (human)) of 88.2%, a residual activity (MAP3K3 (human)) of 91.9% and a residual activity (MST1R (human)) of 103%. The residual activity (SIK2 (human)) was 97.6%, the residual activity (PHKG1 (human)) was 93.7% and the residual activity (MUSK (human)) was 79.8%. The residual activity (TSSK2 (human)) was 78%, the residual activity (CSNK1D (human)) was 96.4% and the residual activity (NUAK1 (human)) was 94%. It also gave a residual activity (NTRK2 (human)) of 89.8%, a residual activity (DDR2 (human)) of 89.9% and a residual activity (EPHA8 (human)) of 98%. It also gave a residual activity (HCK (human)) of 95.1%, a residual activity (NEK11 (human)) of 101% and a residual activity (CSNK1G3 (human)) of 82.7%.
